This is an account of results in patent publication US11976083B2, “Inhibitors of peptidylarginine deiminases” (Gilead Sciences, Inc., priority 2020, dated 2024).

This test concerns the target T1, human PAD4 (Homo sapiens, UniProt Q9UM07).
T1 construct: human PAD4 (NM_012387), A2-P663, was PCR amplified; His-SUMO (N, cleaved yes); made in house; host or cells: E. coli BL21(DE3)
In words: In vitro PAD4 BAEE biochemical assay. The following applies: BAEE substrate 3 mM, 5 nM PAD4, 2 mM calcium chloride; geometric mean of multiple experiments. The method, boiled down: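 Recombinant human PAD4 (5 nM final) with 2 mM CaCl2 was preincubated with compound 30 min at 25 °C in MOPS buffer pH 7.6, then reacted with 3 mM BAEE for 2 h at 25 °C. After EDTA stop, released ammonia was detected by o-phthalaldehyde/DTT fluorescence (ex 405/em 535 nm); IC50 from four-parameter fit, geometric mean.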

T1 sequence (Q9UM07 2-663): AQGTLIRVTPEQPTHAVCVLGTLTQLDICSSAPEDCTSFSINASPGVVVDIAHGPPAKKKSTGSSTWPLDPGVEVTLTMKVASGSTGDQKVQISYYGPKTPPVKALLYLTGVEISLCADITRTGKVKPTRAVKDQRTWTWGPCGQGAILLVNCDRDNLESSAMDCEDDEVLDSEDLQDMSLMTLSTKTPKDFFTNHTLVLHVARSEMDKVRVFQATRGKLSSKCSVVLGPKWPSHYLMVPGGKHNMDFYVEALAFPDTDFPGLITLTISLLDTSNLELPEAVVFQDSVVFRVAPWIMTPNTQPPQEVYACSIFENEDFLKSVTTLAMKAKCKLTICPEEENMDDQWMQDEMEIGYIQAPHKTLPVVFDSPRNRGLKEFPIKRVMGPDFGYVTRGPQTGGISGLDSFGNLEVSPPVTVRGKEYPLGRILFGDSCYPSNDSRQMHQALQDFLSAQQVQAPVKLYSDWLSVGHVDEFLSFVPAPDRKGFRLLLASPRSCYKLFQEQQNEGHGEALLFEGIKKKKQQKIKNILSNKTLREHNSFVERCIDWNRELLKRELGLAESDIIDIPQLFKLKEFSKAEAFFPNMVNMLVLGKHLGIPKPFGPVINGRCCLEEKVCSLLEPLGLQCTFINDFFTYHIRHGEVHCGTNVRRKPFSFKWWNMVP

The IC50 is the midpoint of a concentration-inhibition curve. With `COc1cc(C(=O)N2C[C@H](N)[C@@H]3CC[C@H]2C3)cc2nc(-c3cc4ccc5nc4n3CCCCC[C@@H]3C[C@H]3C(=O)N[C@@H]5C)n(C3CC3)c12` [Example 767, (2~{R},5~{R},7~{R})-14-[5-[(1~{S},4~{R},5~{R})-4-amino-2-azabicyclo[3.2.1]octane-2-carbonyl]-1-cyclopropyl-7-methoxy-benzimidazol-2-yl]-2-methyl-3,13,19-triazatetracyclo[11.5.2.0^ {5,7}.0^{16,20}]icosa-1(19),14,16(20),17-tetraen-4-one], the half-inhibitory concentration (IC50) came out at 0.018 µM.

Turning to `COc1cc(C(=O)N2[C@H]3CC[C@@H]2[C@H](N)C3)cc2nc(-c3cc4ccc5nc4n3C[C@H]3CC[C@H]3COCCC(=O)N[C@@H]5C)c(C)n12` [Example 8, (3~{S},6~{R},13~{R})-19-[7-[(1~{R},2~{R},4~{S})-2-amino-7-azabicyclo[2.2.1]heptane-7-carbonyl]-5-methoxy-3-methyl-imidazo[1,2-a]pyridin-2-yl]-13-methyl-8-oxa-1,12,21-triazatetracyclo[12.5.2.0^{3,6}.0^{17,20}] henicosa-14(21),15,17(20),18-tetraen-11-one], the half-maximal inhibitory concentration (IC50) was determined as 0.071 µM.

Regarding `C[C@H]1NC(=O)[C@@H]2C[C@H]2CCCCCn2c(-c3nc4cc(C(=O)N5CC[C@@H](OC(F)F)[C@@H](N)C5)cc5c4n3CCO5)cc3ccc1nc32` [Example 734, (2~{R},5~{R},7~{R})-14-[6-[(3~{S},4~{R})-3-amino-4-(difluoromethoxy)piperidine-1-carbonyl]-9-oxa-1,3-diazatricyclo[6.3.1.0^{4,12}]dodeca-2,4,6,8(12)-tetraen-2-yl]-2-methyl-3,13,19-triazatetracyclo[11.5.2.0^ {5,7}.0^{16,20}]icosa-1(19), 14,16(20),17-tetraen-4-one], the half-inhibitory concentration (IC50) was determined as 0.185 µM.

For the compound `Cc1ccc2c(n1)CCCCCn1c(-c3nc4cc(C(=O)N5C[C@H](N)[C@@H]6CC[C@H]5C6)cc(F)c4n3C3CC3)cc3ccc(nc31)[C@@H](C)NC2=O` [Example 670, (2~{R})-17-[5-[(1~{S),4~{R}, 5~{R})-4-amino-2-azabicyclo[3.2.1]octane-2-carbonyl]-1-cyclopropyl-7-fluoro-benzimidazol-2-yl]-2,8-dimethyl-3,9,16,22-tetrazatetracyclo[14.5.2.0^ {5,10).0^{19,23}]tricosa-1(22),5(10),6,8,17,19(23), 20-heptaen-4-one], the 50% inhibitory concentration (IC50) was found to be 0.006 µM.

Regarding `COc1cc(C(=O)N2CC[C@@H](C(F)(F)F)[C@@H](N)C2)cc2nc(-c3cc4ccc5nc4n3CCCCCCC(C)(C)C(=O)N[C@@H]5C)n(C)c12` [Example 192, (11~{R})-17-[5-[(3~{R},4~{R})-3-amino-4-(trifluoromethyl)piperidine-1-carbonyl]-7-methoxy-1-methyl-benzimidazol-2-yl]-8,8,11-trimethyl-1,10,19-triazatricyclo[10.5.2.0^{15,18}]nonadeca-12(19),13,15(18),16-tetraen-9-one], the IC50 came to 6.69 µM.

Take `CO[C@@H]1CCN(C(=O)c2cc(Cl)c3c(c2)nc(-c2cc4ccc5nc4n2CCCCCc2nccnc2C(=O)N[C@@H]5C)n3C)C[C@@H]1N` [Example 504, (2~{R})-17-[5-[(3~ {S},4~{R})-3-amino-4-methoxy-piperidine-1-carbonyl]-7-chloro-1-methyl-benzimidazol-2-yl]-2-methyl-3,6,9,16,22-pentazatetracyclo [14.5.2.0^{5,10}.0^{19, 23}]tricosa-1(22),5(10), 6,8,17,19(23),20-heptaen-4-one]: the IC50 was 0.172 µM.

Regarding `C[C@H]1NC(=O)C(C)(C)CCCCCCn2c(-c3nc4cc(C(=O)N[C@@H]5CCCNC5)c(F)cc4n3C3CC3)cc3ccc1nc32` [Example 176, 1-cyclopropyl-6-fluoro-~{N}-[(3~{R})-3-piperidyl]-2-[(11~{R})-8,8,11-trimethyl-9-oxo-1,10,19-triazatricyclo[10.5.2.0^{15,18}]nonadeca-12(19),13,15(18),16-tetraen-17-yl]benzimidazole-5-carboxamide], the IC50 worked out at 0.196 µM.

Take `COc1cc(C(=O)N2CC[C@@H](OC)[C@@H](N)C2)cc2nc(-c3cc4ccc5nc4n3CCCCCc3cccc(C)c3C(=O)N[C@@H]5C)n(C)c12` [Example 362, (2~{R})-17-[5-[(3~{S},4~{R})-3-amino-4-methoxy-piperidine-1-carbonyl]-7-methoxy-1-methyl-benzimidazol-2-yl]-2,6-dimethyl-3,16,22-triazatetracyclo[14.5.2.0^{5,10}.0^{19,23}] tricosa-1(22),5(10),6,8,17,19(23),20-heptaen-4-one]: the IC50 stood at 0.137 µM.

Turning to `COc1cc(C(=O)N2CCC[C@@H](N)C2)cc2nc(-c3cc4ccc5nc4n3CCCCCCNC(=O)CO5)c(C)n12` [Example 293, 17-[7-[(3˜{R})-3-aminopiperidine-1-carbonyl]-5-methoxy-3-methyl-imidazo[1,2-a]pyridin-2-yl]-11-oxa-1,8,19-triazatricyclo[10.5.2.0^{15,18}]nonadeca-12(19),13,15(18),16-tetraen-9-one], the IC50 was 0.548 µM.

Regarding `C[C@H]1NC(=O)[C@@H]2C[C@H]2CCCC(F)(F)Cn2c(-c3nc4cc(C(=O)N5C[C@H](N)[C@@H]6CC[C@H]5C6)c(F)c(F)c4n3C3CC3)cc3ccc1nc32` [Example 466, (2~{R},5~{R},7~{R})-14-[5-[(1~{S),4~{R},5~{R})-4-amino-2-azabicyclo[3.2.1]octane-2-carbonyl]-1-cyclopropyl-6,7-difluoro-benzimidazol-2-yl]-11,11-difluoro-2-methyl-3,13,19-triazatetracyclo[11.5.2.0^{5,7}.0^{16,20}] icosa-1(19),14,16(20),17-tetraen-4-one], the concentration for half-maximal inhibition (IC50) is 0.055 µM.

`COc1cc(C(=O)N2C[C@H](N)[C@@H]3CC[C@H]2C3)cc2nc(-c3cc4ccc5nc4n3CC(F)(F)CCCOC(C)(C)C(=O)N[C@@H]5C)n(C)c12` [Example 460, (11~{R})-17-[5-[(1~{S},4~{R},5~{R})-4-amino-2-azabicyclo[3.2.1]octane-2-carbonyl]-7-methoxy-1-methyl-benzimidazol-2-yl]-3,3-difluoro-8,8,11-trimethyl-7-oxa-1,10,19-triazatricyclo[10.5.2.0^{15,18}]nonadeca-12(19),13,15(18),16-tetraen-9-one]: the IC50 came out at 0.071 µM.

As to `COc1cc(C(=O)N2C[C@H]3CC[C@@H]2[C@@H]3N)cc2nc(-c3cc4ccc5nc4n3CCCCCCCC(=O)N[C@@H]5C)c(C)n12` [Example 302, (11~{R})-17-[7-[(1~{R},4~{R},7~{R})-7-amino-2-azabicyclo[2.2.1]heptane-2-carbonyl]-5-methoxy-3-methyl-imidazo[1,2-a]pyridin-2-yl]-11-methyl-1,10,19-triazatricyclo[10.5.2.0^{15,18}]nonadeca-12(19),13,15(18),16-tetraen-9-one], the IC50 amounted to 0.067 µM.

For the compound `COc1cc(C(=O)N2C[C@H](N)[C@@H]3CC[C@H]2C3)cc2nc(-c3cc4ccc5nc4n3CCCCC[C@@]3(F)C[C@H]3C(=O)N[C@@H]5C)n(C)c12` [Example 711, (2~{R},5~{S},7~{R})-14-[5-[(1~{S),4~{R},5~{R})-4-amino-2-azabicyclo[3.2.1]octane-2-carbonyl]-7-methoxy-1-methyl-benzimidazol-2-yl]-7-fluoro-2-methyl-3,13,19-triazatetracyclo[11.5.2.0^ {5,7}.0^{16,20}]icosa-1(19), 14,16(20),17-tetraen-4-one], the IC50 came to 0.019 µM.

Regarding `COc1cc(C(=O)N2CC[C@@H](OC)[C@@H](N)C2)cc2nc(-c3cc4ccc5nc4n3CCC/C=C/c3ccc(Cl)nc3C(=O)N[C@@H]5C)n(C)c12` [Example 781, (2~{R},11~{E})-17-[5-[(3~ {S},4~{R})-3-amino-4-methoxy-piperidine-1-carbonyl]-7-methoxy-1-methyl-benzimidazol-2-yl]-7-chloro-2-methyl-3,6,16,22-tetrazatetracyclo[14.5.2.0^ {5,10}.0^{19,23}]tricosa-1(21),5(10),6,8,11,17,19,22-octaen-4-one], the IC50 stood at 0.073 µM.

`COc1cc(C(=O)N[C@H]2CNCC[C@@H]2F)cc2nc(-c3cc4ccc5nc4n3CCCCCc3c(cnn3C)C(=O)N[C@@H]5C)n(C)c12` [Example 180, 2-[(2~{R})-2,8-dimethyl-4-oxo-3,7,8,15,21-pentazatetracyclo[13.5.2.0^{5,9}.0^{18,22}]docosa-1(21),5(9),6,16,18(22),19-hexaen-16-yl]-~{N}-[(3~{S},4~{S})-4-fluoro-3-piperidyl]-7-methoxy-1-methyl-benzimidazole-5-carboxamide]: the IC50 came out at 0.075 µM.

Turning to `[2H]C1([2H])[C@H](N)[C@@H]2CC[C@@H](C2)N1C(=O)c1cc(OC)c2c(c1)nc(-c1cc3ccc4nc3n1CC(F)(F)CCC[C@@H]1C[C@H]1C(=O)N[C@@H]4C)n2C` [Example 765, (2~{R},5~{R},7~{R})-14-[5-[(1~{S},4~{R},5~{R})-4-amino-3,3-dideuterio-2-azabicyclo[3.2.1]octane-2-carbonyl]-7-methoxy-1-methyl-benzimidazol-2-yl]-11,11-difluoro-2-methyl-3,13,19-triazatetracyclo[11.5.2.0^ {5,7}.0^{16,20}]icosa-1(19),14,16(20),17-tetraen-4-one], the IC50 turned out to be 0.016 µM.

`COc1cc(C(=O)N[C@H]2CNC[C@H]2F)cc2nc(-c3cc4ccc5nc4n3CCCCCCC(C)(C)C(=O)N[C@@H]5C)n(C)c12` [Example 199, ~{N}-[(3~{S),4~{R})-4-fluoropyrrolidin-3-yl]-7-methoxy-1-methyl-2-[(11~{R})-8,8,11-trimethyl-9-oxo-1,10,19-triazatricyclo[10.5.2.0^{15,18}]nonadeca-12(19),13,15(18),16-tetraen-17-yl]benzimidazole-5-carboxamide]: the concentration for half-maximal inhibition (IC50) came to 18.4 µM.
